According to patent EP1201237A1, “Composition comprising an amide or a dialkylsulphoxide derivative for the treatment of cancer” (Virodene Pharmaceutical Holdings (PTY) Ltd., priority 2000, dated 2002):
Read-outs that look alike come from different tables or passages of the source.

What was measured:
[1] = Single dose study of disposition, safety, tolerability and pharmacokinetics of virodene P058 in healthy volunteers; assay type: in vivo; conditions: 7,06 g of DMF transdermally once a week for 8 hours, human subjects
Source text: A draft interim clinical safety report produced by Guy's Drug Research Unit of Kings College and St Thomas' Hospitals' Medical and Dental School is set out below.
A single dose study of the disposition, safety, tolerability and pharmacokinetics of virodene P058 in healthy volunteers.
• ° 5 subjects dosed on day 1 (subjects 001 - 005) • ° 5 subjects dosed on day 14 (subjects 006 - 010) • ° No withdrawals • ° Final follow up for subjects 001 - 005 occurred on day 15 • ° Final follow up for subjects 006 - 010 due on day 28 Table 1.1 -
The first patch was applied at 10h00 on day 1 for subjects 001 - 005 and at 09h20 on […] for subjects 006 - 010 with 10 minute intervals between dosing.
• ° Laboratory Safety Values: No clinically significant changes observed for biochemistry, liver function tests, haematology or coagulation parameters. • ° Vital Signs - There were no obvious clinically significant changes observed • ° Continuous lead [I monitoring - No clinically significant changes observed] • ° 12 kead ECG - No clinically significant changes observed • ° Adverse events are reported in Table 1.2

[2] = system: metastasised fourth stage breast cancer; experiment: Example 1: skin patch treatment of a breast cancer patient; assay type: in vivo, human
Source text: The patient was a person suffering from metastasised fourth stage breast cancer. The primary cancer was in the left breast and had spread to the right breast. The patient had auxiliary left and right swollen lymph glands under both arms, swelling of lymph glands under the chin and a secondary tumour near the crown of the head protruding from the skull which was four fingertips across. The patient was dehydrated and unable to keep down food or water.
A skin patch was applied to the skin adjacent the tumour for six hours. […] The gel served to prevent leakage of liquid DMF from the patches.
Each patch was applied for a period of 6 hours, on alternate days for one week followed by a one week break.

[3] = DMF level in the patient's blood during patch treatment; assay type: in vivo, human; conditions: patches of about 7,064 g DMF
Method: For a patient weighing about 60 kg, an amount of about 14 g over a period of 12 hours is required to produce a level of 100 ppm. […] Absorption capability varies from patient to patient depending on factors such as skin-type and skin thickness.
Daily full clinical and psychological evaluations were also conducted.

Mama Carcinoma = experiment: Example 2: skin patch treatment of a patient with Mama Carcinoma; assay type: in vivo, human; conditions: three weekly treatments, 7.04g patches for 4 hours
Karposi Sarcoma = experiment: Example 3: skin patch treatment of an AIDS patient with Karposi Sarcoma; assay type: in vivo, human
Source text: A third patient was a person suffering from full blown AIDS. The patient had seven tumours which were diagnosed as Karposi Sarcoma.

non-Hodgkins Lymphoma = experiment: Example 4: skin patch treatment of a patient with non-Hodgkins Lymphoma; assay type: in vivo, human
Source text: A fourth patient was an adult diagnosed with non-Hodgkins Lymphoma. The patient had not been on chemotherapy and was HIV positive.

DNA sequences = experiment: In-vitro studies in cell cultures: effect on DNA; assay type: cell-based
Source text: (§1) Instead of a piling pattern, mono layers of cells in regular parallel orientation formed that were typical of non-malignant fibroblasts. […] Focal Adhesion Kinase (FAK) is activated in response to receptor activation at focal adhesion sites. FAK is a substrate for the oncogenic forms of the src-family of tyrosine kinases. The action of polar agents on oncogenic expression is believed to be the induction of cancer cells to become more benign. It would seem reasonable that to convert a malignant cell to a benign phenotype, there should be some modulation of gene expression causing malignancy in the first place. In the HL-60 human promyelocytic leukemia cells, dimethylsulfoxide (DMSO) reduced the expression of c-myc oncogenes by 80 to 90%. Some brain tumours are regulated by glial-binding growth factors such as Epidermal Growth Factor (EGF) and Platelet Derived Growth Factor (PDGF) both of which are related to oncogenes. The PDGF β-chain gene is the cellular homologue and proto-oncogene of the viral […] oncogene. Cell maturation induced by polar agents (N-MF) as single agents is most likely to be effective in Neuroblastoma and Glioblastoma (as well as leukemia and melanoma). Polar agents easily penetrate the blood brain barrier and sensitize tumour cells to both X-radiation and cis-platinum. […]

myc onco-proteins = experiment: In-vitro studies in cell cultures: myc expression; assay type: cell-based
Source text: as §1

[4] = system: virus transformed mice kidney cell-lines; experiment: Growth pattern of virus transformed kidney cell-lines; assay type: cell-based; conditions: growth medium supplemented by 0.5% DMF
Source text: as §1

[5] = system: HOC-7 ovarian adenocarcinoma cells; experiment: Immunocytochemistry of HOC-7 cells; assay type: cell-based, human
Source text: (§2) (HOC-7) to a malignant cell. This was also found in human colon carcinoma. (Factor - beta 1 is growth factor, that can be up regulated or transformed in human cells.)
(§3) Exposure of HOC-7 ovarian adenocarcinoma cells to regulators of cell differentiation caused inducer-dependent alterations of the antigenic pattern of the cells. […] Stimulation of fibronectin was also seen after addition of transforming growth factor (TGF) - beta 1. […] CA 125, Fibronectin, and desmoplakins I and II. TGF - beta 1 stimulated fibronectin and desmoplakins I and II only.

[6] = system: HOC-7 ovarian adenocarcinoma cells; experiment: ELISA of antigen expression in HOC-7 cells; assay type: cell-based, human
Source text: as §2, §3

HOC-7 cells = experiment: Immunophenotype and growth of HOC-7 cells; assay type: cell-based, human
Source text: Production of EGF and TGF - alpha was not affected by these inducers. Immunocytochemistry. […] The expression of myconcoproteins was inversely related to cell proliferation CA 125, however, seems to be unrelated to cell growth.

[7] = system: chemistry transformed fibroblasts; experiment: Phenotype of chemically transformed fibroblasts; assay type: cell-based
EGF-transfected cells = experiment: Properties of EGF-transfected FR3T3 fibroblasts; assay type: cell-based
ras-transfected cells = experiment: Properties of ras-transfected FR3T3 fibroblasts; assay type: cell-based
Source text: (§4) The high proliferation rate of the ras-3 cells was associated with elevated expression of protein B23. The 19-3 cells. But not the ras-3 cells, expressed cell surface fibronectin.

FR3T3 fibroblasts = experiment: EGF binding and EGF secretion in transfected FR3T3 lines and control cells; assay type: cell-based
Source text: as §4

Tyrosine Kinase = Tyrosine Kinase Assay kit (non-radioactive # 1534505, Boehringer Mannheim); assay type: biochemical; conditions: values only in Appendix images
Source text: The results are set out in the Appendix below. [formula] [formula]

[8] = Toxicity of DMF by route of administration; assay type: in vivo; conditions: subcutaneous versus oral
[9] = in vivo; cited from earlier work
[10] = several 90-day studies; cited from earlier work
[11] = oral study; cited from earlier work
[12] = inhalation study with rabbits; cited from earlier work
c-myc oncogenes = experiment: c-myc expression in HL-60 cells; assay type: cell-based; conditions: HL-60 human promyelocytic leukemia cells
Source text: as §1

For `CN(C)C=O` [DMF, dimethylformamide], the liver enzymes [1] was “does not result in raised liver enzymes”, the serious adverse events [1] was “no serious adverse events” and the toxicity [1] was “non-toxic”. For the same compound, the “temperature of the tumour” value ([2]; during patch treatment) was “dropped to normal”, the “tumour reduced in size” value ([2]; patches 6 hours on alternate days for one week, then one week break) was 1 - 2 mm per week and the “patient's appetite” value ([2]; three days after the treatment began) was “appetite returned”. For the same compound, the tumour diameter ([2]; two days after first 6 hour patch, 32 cm before treatment) was 29,5 cm, the tumour circumference ([2]; two days after first 6 hour patch, 52 cm before treatment) was 51 cm and the “DMF blood level obtained” value ([3]; after loss by evaporation) was 100 ppm. For the same compound, the “DMF blood level delivered in theory” value ([3]; theoretical) was 125 - 135 ppm, the bleeding (Mama Carcinoma) was “bleeding disappeared” and the pain (Mama Carcinoma) was “less pain”. The “tumour shrunk in diameter” value (Mama Carcinoma; 3 weeks, 53 cm before treatment) was 7 cm, the recurrence of tumours (Karposi Sarcoma; after 18 months) was “no tumours had recurred” and the tumours (Karposi Sarcoma; after six treatments) was “disappeared”. The tumours (Karposi Sarcoma; after two weekly treatments, 7.04g patches for 8 hours, seven tumours) was “faded”, the cancer (non-Hodgkins Lymphoma; after eight treatments, 7.04g patches for 8 hours, 8 weeks) was “disappeared” and the recurrence of cancer (non-Hodgkins Lymphoma; eight months later) was “had not recurred”. The “effect on DNA sequences” value (DNA sequences) was “conformational changes and hypomethylation”, the “expression of myc onco-proteins” value (myc onco-proteins) was “inhibited” and the “random piling, non-contact-inhibited growth pattern” value [4] was “marked alteration”. For the same compound, the “cytoplasmic and surface labeling for CA 125 and disposition of fibronectin into the extracellular matrix” value [5] was “stimulated”, the “membrane staining for epidermal growth factor (EGF) receptor and for desmoplakins I and II” value [5] was “elevated” and the “expression of EGF - receptor, CA 125, Fibronectin, and desmoplakins I and II” value [6] was “dose dependently induced”. For the same compound, the cell growth (HOC-7 cells; HOC-7 cells) was “growth inhibition”, the “effectiveness in changing the immunophenotype of HOC-7 cells” value (HOC-7 cells; compared with TGF-beta 1) was “more effective” and the “phenotype of transformed fibroblasts” value [7] was “restoration of a nontransformed phenotype”. The anchorage-independent growth (EGF-transfected cells) was “inhibition”, the “normal cellular morphology and growth rate in monolayer culture” value (EGF-transfected cells) was “restoration” and the “proliferation-associated nucleolar protein B23” value (EGF-transfected cells) was “down-regulation”. The fibronectin expression (ras-transfected cells; ras-3 cells) was “did not restore”, the “growth in monolayer culture or under anchorage-independent growth conditions” value (ras-transfected cells; ras-transfected cells, compared with EGF-transfected cells) was “much slighter effect” and the “secretion of EGF” value (FR3T3 fibroblasts; 2 transfected lines as well as control cells) was “increased”. For the same compound, the EGF binding (FR3T3 fibroblasts; transfected cell lines) was “in neither case did DMF alter”, the “effect of DMF on PTK” value (Tyrosine Kinase) was “Tyrosine Kinase inhibitor” and the “toxicity, subcutaneously as compared with oral administration” value [8] was 5 - 10 times lower. For the same compound, the “acute dermal, oral and inhalation toxicity” value [9] was “low”, the “NOAEL (No-Adverse-observed-Effect-Level)” value [10] was “could not be established” and the “NOAEL for developmental effects” value [11] was 44 mg/kg body weight. For the same compound, the “NOAEL for developmental effects” value [12] was 150 mg/m^3.
In the case of `C[S+](C)[O-]` [DMSO, dimethylsulfoxide], the “reduced expression of c-myc oncogenes” value (c-myc oncogenes) is reported as 80 to 90%.
